US20100069316A1, “TREATMENT FOR MULTIPLE MYELOMA” (Ares Trading S.A., priority 2006, published 2010)

What was measured:
Type in all cases: cell-based, human
4 myeloma cell lines = assay: Combination study of compound A with Velcade or melphalan, proliferation; conditions: XG3, XG12, XG7, L363
Description: (§1) Myeloma cells were harvested in the exponential growth phase (at day 3 after culture passage when the cell concentration is around 5×10^5 cells/ml). Cells were washed twice, cultured for 3 hours in RPMI1640 and 10% FCS, washed twice. This makes it possible to remove cell-bound growth factors (in particular recombinant IL-6). Then cells are plated in 96-well flat-bottomed microplates at various concentrations depending on their doubling time: • 5×10^3 cells/well in 100 μl for the cell lines: XG-1, XG-7 • 10^4 cells/well in […] for the cell lines: XG-2, XG-4, XG-6, XG-11, PRMI8226, L363 • 2×10^4 cells/well in 100 μl for the cell lines: XG-3, XG-12, XG-13, XG-14, XG-19, XG-20
(§2) The culture medium used were: • PRMI1640, 10% FCS and 0.5 ng/ml of IL-6 for XG-1, XG-2, XG-3, XG-4, XG-6, XG-7, XG-11, XG-12, XG-13, XG-19, XG-20 cells • X-VIVO20 and 0.5 ng/ml IL-6 for XG-14 cells • PRMI1640 and 10% FCS for RPMI8226 and L363 cells
(§3) The diluted compounds, DMSO or control culture medium were added in 100 μl at the start of the culture. Three culture wells were done for one compound dilution and the experiments were done twice (finally six culture wells for one compound dilution).
Cells were cultured for 4 days. […] Cells were then extracted with a cell collector and the thymidine incorporation was determined using a beta cell counter. […]

XG-12 myeloma cell line = assay: Cell cycle measurement (BrdU/PI, S phase), XG-12; conditions: day 3 of culture
Description: (§4) The cell cycle distribution of the cell lines was assessed by flow cytometry analysis by propidium iodide (PI) and bromodeoxyuridine (BrdU) double-staining. Thirty minutes before stopping the culture, BrdU (10 μM) were added to the cultures and then the cells were collected by centrifugation, washed twice in phosphate buffer saline (PBS) and fixed in 70% ethanol for 20 minutes at room temperature. After two washes with PBS, cells were resuspended in 50 μL of 3N HCl, 0.5% Tween 20 and incubated 20 minutes at 20° C. to denature DNA. […] The fluorescence of FL1-H (BrdU) and FL2-A (PI) were analyzed on a FACScan flow cytometer using Cell Quest software (Becton Dickinson).
(§5) Two myeloma cell lines (XG-3 and XG-12) that are sensitive to compound A (1-(4-{4-[4-(4-chlorophenyl)-pyrimidin-2-ylamino]-benzoyl}-piperazin-1-yl)-ethanone) were selected for the study. To assess the effect of compound A on myeloma cell survival, the percentage apoptotic cells was determined using binding of annexin V to apoptotic cells. The effect of compound A on the cell cycle was assessed by evaluating the percentage of cells in the S phase of the cell cycle by incorporation of BrdU-FITC. Apoptosis, cell cycle and cell numeration were evaluated daily on a four day culture period on the cell lines using the IC10, IC50 and I90 respective doses of compound A.

XG12 myeloma cell line = assay: Cell proliferation assay (tritiated thymidine incorporation), XG12; conditions: Homo sapiens, XG12, alone or with fixed Velcade/Melphalan
Description: as §1, §2, §3
Cells were cultured for 4 days. Eight hours before the end of the culture, 0.5 μCi of tritiated thymidine were added in 50 μl of RPMI1640 and 10% FCS. Cells were then extracted with a cell collector and the thymidine incorporation was determined using a beta cell counter.
For each experiment, the mean tritiated thymidine incorporations (mean values determined on three culture wells) were plotted against the logarithmic concentrations of the compound. The curves were fitted with exponential regression, which was determined using the concentrations defining the inhibition response (usually 3-4 concentrations).
The concentrations yielding 50% and 90% inhibition of the proliferation of myeloma cells were determined with these regression curves.
The concentration yielding 10% (IC10) or 50% (IC50) inhibition of the myeloma cell lines were determined and the data are listed in Table 2.
Compound A was tested in combination with melphalan or Velcade. Increasing concentration of compound A (0, 0.01, 0.03, 0.12, 0.37, 1.1, 3.1, 10, 30 μM) were applied on 4 myeloma cell lines alone or in combination with Velcade or melphalan at concentration yielding around 10% or 50% inhibition.

[1] = tested on: myeloma cell lines (XG-3 and XG-12); assay: Cells in S phase (BrdU) in myeloma cell lines; conditions: XG-3 and XG-12, IC10, IC50, IC90 doses
Description: as §4, §5

[2] = tested on: non-myeloma bone marrow cells; assay: Ex vivo survival of non-myeloma bone marrow cells; conditions: bone marrow cells of 10 myeloma patients, 5 days, 1, 3.3, 10 μM
Description: Bone marrow cells from 10 patients with multiple myeloma (5 patients at diagnosis and 5 relapsing patients) were harvested and mononuclear cells isolated by ficoll hypaque centrifugation.
At day 5, cell numbers were counted and the percentage and counts of myeloma cells were determined by FACS staining using an anti-CD138 monoclonal antibody. This made it possible to assay for viable myeloma cells as CD138 is lost on pre-apoptotic myeloma cells (Jourdan, M. et al. (1998) Br. J. Haematol., 100, 637-648). The percentage and count of CD34 hematopoietic progenitors was also determined with an anti-CD34 monoclonal antibody and FACS labeling.
Bone marrow mononuclear cells from 5 patients with newly diagnosed multiple myeloma or from 5 patients with relapsing multiple myeloma were cultured for 5 days with culture medium and 10% fetal calf serum. […] At the end of culture, cells were counted. Viable myeloma cells were determined using FACS labeling with anti-CD138 monoclonal antibody, as well as viable hematopoietic stem cells using an anti-CD34 monoclonal antibody. Results are expressed as the percentage of viable myeloma cells, non-myeloma cells, or CD34 cells compared to the control culture group without inhibitor.

XG-3 myeloma cell line = assay: Cell cycle measurement (BrdU/PI, S phase), XG-3; conditions: day 3 of culture
Description: The cell cycle distribution of the cell lines was assessed by flow cytometry analysis by propidium iodide (PI) and bromodeoxyuridine (BrdU) double-staining. Thirty minutes before stopping the culture, BrdU (10 μM) were added to the cultures and then the cells were collected by centrifugation, washed twice in phosphate buffer saline (PBS) and fixed in 70% ethanol for 20 minutes at room temperature. After two washes with PBS, cells were resuspended in 50 μL of 3N HCl, 0.5% Tween 20 and incubated 20 minutes at 20° C. to denature DNA. The cells were then recovered by centrifugation, resuspended in 250 μL of 10 mM sodium tetraborate to neutralize the reaction, washed twice with PBS, 0.05% Tween 20, and incubated with 20 μL of anti-BrdU-FITC (BD Biosciences). After two additional washes, the cells were resuspended in 500 μL of PBS, 0.05% Tween 20 containing 10 μg/ml PI. The fluorescence of FL1-H (BrdU) and FL2-A (PI) were analyzed on a FACScan flow cytometer using Cell Quest software (Becton Dickinson).
as §5

IC50 (XG12 myeloma cell line; concentration of compound A yielding 50% inhibition of proliferation, read-out: IC50): 0.974 µM
IC90 (XG12 myeloma cell line; concentration of compound A yielding 90% inhibition of proliferation): 3.92 µM
Compound: CC(=O)N1CCN(C(=O)c2ccc(Nc3nccc(-c4ccc(Cl)cc4)n3)cc2)CC1 [Compound A, 1-(4-{4-[4-(4-Chloro-phenyl)-pyrimidin-2-ylamino]-benzoyl}-piperazin-1-yl)-ethanone]
effect of combination with Melphalan on inhibition of myeloma cell proliferation (4 myeloma cell lines; Melphalan at IC10 or IC50): additive effect
effect of combination with Velcade on inhibition of myeloma cell proliferation (4 myeloma cell lines; Velcade at IC10 or IC50): additive effect
S phase (%) percentage of cells in the S phase (XG-12 myeloma cell line; XG-12, compound A at IC50 concentration): 37.3%
S phase (%) percentage of cells in the S phase (XG-12 myeloma cell line; XG-12, compound A at IC90 concentration): 6.8%
number of cells in the S phase of the cell cycle [1]: induced a decrease in the number of cell in the S phase
survival of other (non-myeloma) bone marrow cells [2]: without affecting the survival of other bone marrow cells
S phase (%) percentage of cells in the S phase (XG-3 myeloma cell line; XG-3, compound A at IC10 concentration): 32.1%
S phase (%) percentage of cells in the S phase (XG-3 myeloma cell line; XG-3, compound A at IC50 concentration): 29.2%
S phase (%) percentage of cells in the S phase (XG-3 myeloma cell line; XG-3, compound A at IC90 concentration): 15.3%
